Source: patent US8318782B2, “Mitotic kinesin inhibitor” (Kyowa Hakko Kirin Co., Ltd., priority 2003, dated 2012)

Target: T1, human Eg5 motor domain (Homo sapiens, UniProt P52732)
T1 construct: A plasmid expressing the motor domain of human Eg5 was constructed; made in house; host or cells: Escherichia coli BL21 (DE3)
T1 sequence (P52732 18-359 limits assumed): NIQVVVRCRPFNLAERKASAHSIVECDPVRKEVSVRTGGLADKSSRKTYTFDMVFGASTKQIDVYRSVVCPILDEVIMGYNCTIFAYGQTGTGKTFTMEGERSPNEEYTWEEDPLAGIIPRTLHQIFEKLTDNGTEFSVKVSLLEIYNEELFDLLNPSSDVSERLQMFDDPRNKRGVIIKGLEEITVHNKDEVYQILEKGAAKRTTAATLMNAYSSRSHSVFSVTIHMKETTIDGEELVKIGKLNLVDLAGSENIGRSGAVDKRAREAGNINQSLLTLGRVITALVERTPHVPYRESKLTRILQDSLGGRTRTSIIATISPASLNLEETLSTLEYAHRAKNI
Test: Eg5 enzyme inhibition test (2) (ATPase activity, Eg5 motor domain)
Type: biochemical
Details: human Eg5 motor domain purified sample, 30° C. for 30 minutes, absorbance at 360 nm
Protocol: A recombinant human Eg5 motor domain protein was prepared by referring to the literature [Biochemistry, Vol. 35, p. […] A plasmid expressing the motor domain of human Eg5 was constructed, and transformed into Escherichia coli BL21 (DE3). The transformant was cultured at 25° C., and when OD600 reached 0.74, isopropyl-β-D-thiogalactoside was added at a final concentration of 0.5 mmol/L. The transformant was further cultured for 4 hours, and then the culture medium was centrifuged to collect the cells. The cells were suspended in a buffer and ultrasonicated, and then the sonicated solution was centrifuged to recover the supernatant. The supernatant was purified by cation exchange column chromatography to obtain a partially-purified sample. Furthermore, the partially purified sample was purified by gel filtration column chromatography to obtain a finally purified sample.
Measurement of the ATPase activity of Eg5 was carried out by referring to the literatures EEMBO Journal, Vol. 13, p. […] Solution A was dispensed into each well of a 96-well plate as 45 μL portions. Solution B was used to serially dilute a test compound. The diluted test compound solutions in a volume of 30 μL were mixed with Solution A added beforehand in each well of the 96-well plate to start the enzymatic reaction. The enzymatic reaction was performed at 30° C. for 30 minutes.

IC50 | SMILES
≤ 2 µM | CC(C)(C)C(=O)NC1=NN(C(=O)C(C)(C)C)C(CNS(C)(=O)=O)(c2ccccc2)S1 (stereo not shown) [Compound 95]
≤ 2 µM | CCS(=O)(=O)NCC1(c2ccccc2)SC(NC(=O)C(C)(C)C)=NN1C(=O)C(C)(C)C (stereo not shown) [Compound 97]
≤ 2 µM | CC(C)C(=O)NC1=NN(C(=O)C(C)C)C(CCNS(C)(=O)=O)(c2ccccc2)S1 (stereo not shown) [Compound 100]
≤ 2 µM | CN(C)CCC1(c2ccccc2)SC(NC(=O)C(C)(C)C)=NN1C(=O)C(C)(C)C (stereo not shown) [Compound 104]
≤ 2 µM | CC(C)(C)C(=O)NC1=NN(C(=O)C(C)(C)C)C(CCC(N)=O)(c2ccccc2)S1 (stereo not shown) [Compound 107]
≤ 2 µM | CC(C)(C)C(=O)NC1=NN(C(=O)C(C)(C)C)C(CCC(=O)NCCO)(c2ccccc2)S1 (stereo not shown) [Compound 111]
≤ 2 µM | CC(=O)NC1=NN(C(C)=O)C(C)(c2sccc2Cl)S1 (stereo not shown) [Compound 134]
≤ 2 µM | CC(=O)N1N=C(N2CCCC2=O)SC1(CNS(C)(=O)=O)c1ccccc1 (stereo not shown) [Compound 152]
≤ 2 µM | CC(=O)N1N=C(N2CCCCC2=O)SC1(CNS(C)(=O)=O)c1ccccc1 (stereo not shown) [Compound 154]
≤ 2 µM | C=CS(=O)(=O)NCC1(c2ccccc2)SC(NC(=O)C(C)(C)C)=NN1C(=O)C(C)(C)C (stereo not shown) [Compound 171]
≤ 2 µM | CC(=O)N1N=C(NC(=O)C(C)(C)C)SC1(CNS(=O)(=O)CCN(C)C)c1ccccc1 (stereo not shown) [Compound 174]
≤ 2 µM | CCNCCS(=O)(=O)NCC1(c2ccccc2)SC(NC(=O)C(C)(C)C)=NN1C(=O)C(C)(C)C (stereo not shown) [Compound 176]
≤ 2 µM | CC(C)(C)C(=O)NC1=NN(C(=O)C(C)(C)C)C(CCN)(c2ccccc2)S1 (stereo not shown) [Compound 210]
≤ 2 µM | CC(C)(C)C(=O)NC1=NN(C(=O)C(C)(C)C)C(CNS(=O)(=O)CCCN)(c2ccccc2)S1 (stereo not shown) [Compound 221]
≤ 2 µM | CN(C)CCCS(=O)(=O)NCC1(c2ccccc2)SC(NC(=O)C(C)(C)C)=NN1C(=O)C(C)(C)C (stereo not shown) [Compound 238]
≤ 2 µM | CCN(C)CCS(=O)(=O)NCC1(c2ccccc2)SC(NC(=O)C(C)(C)C)=NN1C(=O)C(C)(C)C (stereo not shown) [Compound 264]
